# Data published in article PMC11395145, “The Archetypal Gamma-Core Motif of Antimicrobial Cys-Rich Peptides Inhibits H^+-ATPases in Target Pathogens” (International Journal of Molecular Sciences, 2024).
# Experiments:
# [1] = tested on: Candida albicans ATCC 10231; experiment: Microbicidal (spread-plate cell viability) assay, candidacidal activity; format: cell-based; conditions: for IC50: 90 min, 37 °C, 10 mM Tris-HCl pH 7.4, 10^6 cells/mL, CFU plating, estimated, read-out: IC50 (concentration that caused 50% reduction in viable counts) against C. albicans; for effect of high external K^+ on candidacidal activity: Tris buffer with 50 mM KCl vs without
# Experimental: (§1) First, we tested the antimicrobial activity of Kal-1 and a shorter Kal-1-derived peptide (Kdp15), both containing the complete γ-core signature of human lactoferrin, against C. albicans and P. aeruginosa. Microbicidal (cidal) activity was determined after 90 min of incubation (37 °C; pH 7.4) with a range of concentrations of each hLf-derived peptide.
# (§2) Figure 1 Cell viability and membrane permeabilization assays. C. albicans or P. aeruginosa (10^6 cells/mL) were incubated (90 min, 37 °C) with each peptide/protein at the indicated concentrations. Aliquots were plated on SDA or […], and colonies were counted after 24–48 h (C. albicans) or 24 h (P. aeruginosa). At each point, samples were stained with propidium iodide (PI) and intracellular PI incorporation, indicative of membrane permeabilization, was quantified by flow cytometry. The relative cell viability (blue lines) and cellular permeabilization (red lines) were calculated as the percentage of untreated cells. Human lactoferrin (hLf) and the peptide Lfpep were used as negative and positive controls of cellular permeabilization, respectively.
# (§3) Microbial susceptibility to the peptides was determined in a spread-plate assay as described previously. Briefly, two-fold serially diluted peptides were incubated (37 °C) with approximately 10^6 cells/mL in Tris buffer (10 mM Tris-HCl, pH 7.4). After 90 min of incubation with the peptides, aliquots were removed and plated in duplicate on an appropriate agar plate for each species (SDA for C. albicans, TSA for P. aeruginosa). The plates were incubated for 24–48 h at 30 °C (C. albicans) or 24 h at 37 °C (P. aeruginosa) for enumeration. The cell viability values, expressed as colony forming units (CFUs), were determined relative to incubation without added peptides and represent the mean ± standard deviation (±SD) of at least three independent determinations. For inhibition assays, the cell suspensions were preincubated (15 min at 37 °C) with the corresponding inhibitors before the addition of peptides. Water-insoluble inhibitors were prepared in DMSO, such that the final assay volume was ≤1%. Other specific experimental inhibition conditions are described where appropriate. The IC50 value is expressed as the concentration that caused 50% reduction in viable counts.
# [2] = tested on: Pseudomonas aeruginosa 10145 (PAO1); experiment: Microbicidal (spread-plate cell viability) assay, pseudomonacidal activity; format: cell-based; conditions: for IC50: 90 min, 37 °C, 10 mM Tris-HCl pH 7.4, 10^6 cells/mL, CFU plating, read-out: IC50 (concentration that caused 50% reduction in viable counts) against P. aeruginosa; for effect of high external K^+ on pseudomonacidal activity: Tris buffer with 50 mM KCl vs without
# Experimental: as §1, §2, §3
# [3] = tested on: C. albicans cells; experiment: Cell membrane permeability assay (propidium iodide, flow cytometry); format: cell-based, Candida albicans; conditions: 90 min, 37 °C, range of concentrations, PI 9 μM
# Experimental: (§4) To determine whether Kal-1 and Kdp15 exert a permeabilizing effect on fungal or bacterial membranes, the cellular influx of the fluorescent nucleic-acid-binding dye propidium iodide (PI) was assessed. As PI itself cannot permeate through an intact phospholipid bilayer, only permeabilized cells take up PI, resulting in DNA intercalation and fluorescence.
# (§5) Flow cytometry was used to assess the ability of peptides to permeabilize plasma membranes of cells in incorporation of the DNA intercalating dye propidium iodide (PI). C. albicans or P. aeruginosa cells (10^6 cells/mL) in Tris buffer were incubated with two-fold serially diluted peptides for 90 min at 37 °C and subsequently reincubated with PI (9 μM, final concentration) for 5 min. The suspensions were centrifuged at 1100× g for 10 min and subsequently washed with Tris buffer to remove any unbound PI. The peptide Lfpep was used to disrupt the cytoplasmic membrane (positive control). Cell fluorescence was monitored using a Cytomics FC500 Flow Cytometer (Beckman Coulter Life Sciences, Indianapolis, IN, USA). The PI fluorescence was excited at a wavelength of 488 nm and emission was registered at 610 nm. For each treatment, 20,000 events were measured. Data were acquired and analyzed using CytExpert 2.1 software. Results were expressed as the percentage of PI-positive cells with respect to the unstained cells (control). […]
# [4] = tested on: P. aeruginosa cells; experiment: as above; format: cell-based, Pseudomonas aeruginosa; conditions: 90 min, 37 °C, range of concentrations, PI 9 μM
# Experimental: as §4, §5
# [5] = tested on: C. albicans cells; experiment: Oxygen consumption measurement (Clark-type electrode); format: cell-based, Candida albicans; conditions: 5 × 10^6 cells/mL, peptides at IC50, piericidin A 32 μM, at least 30 min, 25 °C
# Experimental: (§6) Figure 3 Effect of cellular respiration on the microbicidal activity of hLf γ-core-containing peptides. (A,C) Oxygen consumption was measured in C. albicans and P. aeruginosa cellular suspensions in the absence (control) or the presence of kaliocin-1 (Kal-1), Kdp15, or human lactoferrin (hLf), and piericidin A (positive control). (B,D) Effect of cellular respiration on the microbicidal activity of hLf γ-core-containing peptides. Cells (10^6 cells/mL) were pre-incubated (15 min, 37 °C) with 32 μM piericidin A and incubated for 90 min at 37 °C with the peptides hLf or BM2. The cell viability was determined by means of the plate counting method. The results are the mean ± SD from duplicates of at least three independent experiments. * p < 0.05, ** p < 0.01, and *** p < 0.001 were used.
# (§7) C. albicans or P. aeruginosa cells were grown to the mid-logarithmic phase, washed twice in Tris buffer, and resuspended in the same buffer, as described in [9, 10]. Briefly, cells (5 × 10^6 cells/mL) were pre-incubated for 15 min at 37 °C with the peptides (IC50). […] Oxygen consumption was measured using a Clark-type oxygen electrode (Dual digital-model 20, Rank Brothers Ltd., Cambridge, UK) in a closed jacketed chamber maintained at 25 °C. […] The viability of the cells was determined at 30 min by removing aliquots from the oxygen chambers and plating the subsequent dilutions on SDA or TSA plates.
# [6] = tested on: P. aeruginosa cells; experiment: as above; format: cell-based, Pseudomonas aeruginosa; conditions: 5 × 10^6 cells/mL, peptides at IC50, piericidin A 32 μM, at least 30 min, 25 °C
# Experimental: as §6, §7
# [7] = tested on: C. albicans cells; experiment: Measurement of intracellular ATP (BacTiter-Glo); format: cell-based, Candida albicans; conditions: C. albicans 10^6 cells/mL, candidacidal concentration, 90 min, 37 °C; BM2 0.25 μM
# Experimental: Total ATP was measured by using the BacTiter-Glo^TM Microbial Cell Viability Assay (Promega Co., Madison, WI, USA) according to the manufacturer’s instructions. […] Aliquots (100 μL) were incubated (90 min at 37 °C) with kaliocin-1, Kdp15, or human lactoferrin and the BM2 peptide (positive control). One hundred microliters of incubation mix was transferred into a 96-well opaque white plate, mixed with an equal volume of the BacTiter-Glo reagent, and incubated for 15 min in the dark. The reagent used a thermostable luciferase to produce luminescence in an ATP-dependent manner. The emitted luminescence was detected by using a Varioskan Flash multimode reader (Thermo Scientific, Waltham, MA, USA) with a 10 s of shaking and 1 s integration time. A calibration curve was prepared for each experiment, with ATP standards ranging from 1 to 1000 nM. For assays performed in the presence of the BM2 peptide, samples were preincubated with 0.25 μM BM2 for 30 min at 37 °C. All the tests were performed in triplicate at least four times.
# [8] = target: Pma1p H^+-ATPase (Candida albicans, UniProt P28877); conditions: starved C. albicans 10^7 cells/mL in 50 mM KCl, pre-incubated with peptide 2 × IC50, 2.5 mM glucose; control ~1.3 pH units
# Experimental: C. albicans cells (10^7 cells/mL) in 50 mM KCl were preincubated with the peptides (2 × IC50) for 20 min. Glucose (final concentration of 2.5 mM) was then added to induce H^+ efflux via Pma1p H^+-ATPase, as indicated by the subsequent external acidification.
# To measure the proton pumping activity of Pma1p H^+-ATPase, a glucose-induced acidification assay of the medium was performed as previously described [10]. Briefly, cultures of C. albicans cells were grown to the mid-log phase in SDB medium and washed twice in Tris buffer (pH 8.0). The cells were resuspended in 50 mM KCl and maintained for 18 h at 4 °C to reduce metabolic activity to a minimum (starvation conditions). To determine the external acidification, starved cells (~10^7 cells/mL) were incubated for 15 min at 30 °C in the absence or the presence of the peptides (2 × IC50). Human lactoferrin (20 μM) was used as a positive control. The initial pH of cellular suspension was adjusted with HCl to pH 6.6 (approx.) and glucose was immediately added (final concentration, 2.5 mM) to the cellular suspension. The pH of the medium was recorded at 1 min intervals for 20 min using a SevenMulti S50-K pH meter (Mettler-Toledo, Greifensee, Switzerland) with a calibrated electrode (InLab 413, Mettler-Toledo) with constant stirring. Every experiment was performed using two replicates and repeated independently three times.
# [9] = tested on: C. albicans cells; experiment: Extracellular potassium measurement (K+ efflux, ICP-OES); format: cell-based, Candida albicans; conditions: 10^7 cells/mL, peptides 2 × IC50, 37 °C
# Experimental: (§8) Figure 2 Potassium efflux induced by hLf γ-core-containing peptides. (A,D) Kinetics of K^+ efflux. C. albicans or P. aeruginosa (10^7 cells/mL) were incubated with kaliocin-1, Kdp15, human lactoferrin (hLf), and Lfpep. hLf and Lfpep were used as negative and positive controls of the membrane permeabilization, respectively. The effect of antifungal BM2 peptide was evaluated. The extracellular K^+ concentration was quantified at different times. (B,C,E) Effect of extracellular K^+ and TEA^+ on microbicidal activity. (B,E) microbicidal activity was assessed in Tris buffer in the absence or in the presence of 50 mM KCl or (C) 10 mM TEA^+. Cell viability was determined by plating aliquots of the cell suspensions. The percentage of viable cells was determined relative to that for cells incubated without peptides (control). […]
# (§9) Measurements of potassium were performed using inductively coupled plasma optical emission spectrometry (ICP-OES) with a Perkin-Elmer Optima 2000 DV spectrometer. […] The percentage of cytosolic K^+ released from cell suspensions treated with Lfpep was determined in positive control assays. The total cellular K^+ content (100% value) was measured in the supernatant of cellular suspensions previously treated only with 0.5% (v/v) HClO4, heated for 1 h at 95 °C, and centrifuged to remove cell debris. […]
# [10] = tested on: P. aeruginosa cells; experiment: as above; format: cell-based, Pseudomonas aeruginosa; conditions: 10^7 cells/mL, peptides 2 × IC50, 37 °C
# Experimental: as §8, §9
# [11] = tested on: Candida albicans ATCC 10231; conditions: used in control assays; cited from earlier work
# Experimental: First, we tested the antimicrobial activity of Kal-1 and a shorter Kal-1-derived peptide (Kdp15), both containing the complete γ-core signature of human lactoferrin, against C. albicans and P. aeruginosa. Microbicidal (cidal) activity was determined after 90 min of incubation (37 °C; pH 7.4) with a range of concentrations of each hLf-derived peptide. The hLf γ-core-containing peptides were microbicidal in a concentration-dependent way (Figure 1). […] The IC50 es ...
# [12] = cells pre-incubated 15 min, 37 °C with 32 μM piericidin A, then 90 min with peptide
# Pma1p H^+-ATPase, sequence (P28877 whole entry): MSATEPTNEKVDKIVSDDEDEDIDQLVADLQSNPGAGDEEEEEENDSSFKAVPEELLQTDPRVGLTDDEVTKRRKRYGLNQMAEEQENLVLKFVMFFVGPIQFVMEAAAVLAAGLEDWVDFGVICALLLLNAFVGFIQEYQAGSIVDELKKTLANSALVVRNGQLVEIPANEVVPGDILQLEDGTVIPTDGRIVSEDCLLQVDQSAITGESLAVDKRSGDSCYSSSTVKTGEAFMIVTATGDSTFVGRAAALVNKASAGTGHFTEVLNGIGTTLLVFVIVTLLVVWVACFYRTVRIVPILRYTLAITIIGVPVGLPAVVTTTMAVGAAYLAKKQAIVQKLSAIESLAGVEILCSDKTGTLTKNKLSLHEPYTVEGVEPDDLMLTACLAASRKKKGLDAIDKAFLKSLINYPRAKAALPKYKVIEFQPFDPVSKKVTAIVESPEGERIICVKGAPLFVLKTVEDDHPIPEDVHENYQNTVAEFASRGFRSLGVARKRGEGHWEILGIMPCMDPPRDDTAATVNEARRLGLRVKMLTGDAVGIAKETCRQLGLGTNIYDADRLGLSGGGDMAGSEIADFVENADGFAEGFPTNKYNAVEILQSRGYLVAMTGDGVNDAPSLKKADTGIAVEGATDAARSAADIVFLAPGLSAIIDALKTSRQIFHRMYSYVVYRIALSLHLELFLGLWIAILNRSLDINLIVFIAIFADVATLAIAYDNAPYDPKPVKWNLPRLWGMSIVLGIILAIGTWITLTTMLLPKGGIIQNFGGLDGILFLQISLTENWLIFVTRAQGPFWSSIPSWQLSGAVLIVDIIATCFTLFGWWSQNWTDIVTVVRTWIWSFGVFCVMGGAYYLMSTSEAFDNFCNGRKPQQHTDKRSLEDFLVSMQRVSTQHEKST
Sequence,IC50 [1],effect of high external K^+ on candidacidal activity [1],"effect of mitochondrial ATP synthase inhibition (oligomycin A) on candidacidal activity ([1]; cells pre-incubated 15 min, 37 °C with 16 μg/mL oligomycin A)","effect of respiration inhibition (piericidin A) on candidacidal activity [1, 12]",effect of Tok1p K^+ channel block (TEA^+) on candidacidal activity ([1]; cells pre-incubated 15 min with 10 mM TEA^+),IC50 against C. albicans relative to IC50 of native hLf (fold greater) ([1]; vs hLf IC50 3 μM),IC50 [2],effect of high external K^+ on pseudomonacidal activity [2],"effect of respiration inhibition (piericidin A) on pseudomonacidal activity [2, 12]","PI fluorescent cells (plasma membrane permeabilization), C. albicans [3]","PI fluorescent cells (plasma membrane permeabilization), P. aeruginosa [4]",oxygen consumption of C. albicans in presence of the substance [5],oxygen consumption of P. aeruginosa in presence of the substance [6],increment in intracellular ATP (iATP) level compared to untreated control [7],decrease of external pH after 20 min (glucose-induced acidification) [8],"K^+ efflux from C. albicans, in words [9]","K^+ efflux from P. aeruginosa, in words [10]",previously reported microbicidal concentration (organism not given) [11]
NLCRLCAGTGENKCA [Kdp15],100 µM,seemed to protect,less susceptible,less susceptible,less susceptible,~33 fold,3 µM,seemed to protect,less susceptible,not significantly increased,not significantly increased,equal to that of untreated (control) cells,equal to that of untreated (control) cells,~ 5 fold,approximately 0.5 pH units,,,
"TKCFQWQRNMRKVRGPPVSCIKR [Lfpep, antimicrobial hLf-derived peptide without a γ-core motif that permeabilizes bacterial and fungal cytoplasmic membranes, reference compound]",20 µM,not modified,,,,,0.5 µM,not modified,,significant increase,significant increase,,,,,rapid and increased K^+ release,rapid and increased K^+ release,50 µM
